According to US20260217743A1, “ETHER OF PHOSPHATIDYLCHOLINE AND PHOSPHATIDYLETHANOLAMINE, THEIR LYSO-FORMS AND MIXTURE THEREOF FOR USE IN THE TREATMENT OF A DISEASE OR DISORDER CAUSED BY A DEFICIENCY IN PLASMALOGENS” (Baker Heart and Diabetes Institute, priority 2023, published 2026):

Assays:
RAW 264.7 cells = assay: LPC(O)/LPE(O) supplementation with different SN1 compositions in RAW 264.7 cells, PE(P) level and composition; format: cell-based, mouse; conditions: 20 μM, 24 hours
Method: A mouse macrophage cell line, RAW 264.7 was used for this study. The cells were cultured at 37° C. with 5% CO2 in Roswell Park Memorial Institute (RPMI) 1640 medium containing L-glutamine with 1% sodium pyruvate (Gibco, USA) and 10% fetal bovine serum (Gibco, USA). The cells were passaged every week and the media replenished every two to three days until passage 30, at which point these cells were discarded. The cells were seeded in a 12-well plate at a concentration of 300,000 cells/ml of media and allowed to grow until they reached 80% confluency.
To assess the incorporation of plasmalogen precursors into cellular plasmalogens, cells were supplemented with compounds with different SN1 compositions, i.e., varying proportions of O-16:0, O-18:0, and O-18:1 of LPC(O) or LPE(O) at a concentration of 20 μM (Table 14). The plasmalogen precursors, LPC(O), and LPE(O), were dissolved in chloroform:methanol (2:1), evaporated under a stream of nitrogen gas at 40° C., and then reconstituted in RPMI medium with 2% bovine serum albumin (Sigma-Aldrich, USA). The control treatment for the cells consisted of RPMI with 2% bovine serum albumin. Once prepared, the media containing the precursors were vortexed and sonicated in an ultrasonic water bath (Soniclean, Adelaide, SA, Australia) for 15 minutes.
Lipids were extracted from cells using the butanol-methanol method, following established protocols. […] These vials were then frozen at −80° C. until they were ready for mass spectrometry analysis.
A targeted lipidomic approach using LC-MS/MS, following a previously published protocol (Huynh, et al., “High-Throughput Plasma Lipidomics: Detailed Mapping of the Associations with Cardiometabolic Risk Factors,” Cell Chem. Biol., 2019 Jan. 17; 26(1):71-84.e4, doi: 10.1016/j.chembiol.2018.10.008), was utilised for the samples from this study. […] Multiple lipid species belonging to different lipid classes including phosphatidylcholine (PC), alkylphosphatidylcholine [PC(O)], alkenylphosphatidylcholine [PC(P)], phosphatidylethanolamine (PE), alkylphosphatidylethanolamine [PE(O)], alkenylphosphatidylethanolamine [PE(P)] or PE plasmalogen, lysophosphatidylcholine (LPC), lysoalkylphosphatidylcholine [LPC(O)], lysoalkenylphosphatidylcholine [LPC(P)], lysophosphatidylethanolamine (LPE), lysoalkylphosphatidylethanolamine [LPE(O)], lysoalkenylphosphatidylethanolamine [LPE(P)], triacylglycerol (TG) and alkyldiacylglycerol [TG(O)] were measured. The lipid species measured in this study are listed in Supplementary Table 1, which is included at the end of this Example. […]
For data processing, vendor software Qualitative Analysis B.07.00 and QQQ Quantitative Analysis B.10.0.0 were utilized. Relative quantification of lipid species was determined by comparing them to the corresponding internal standards. […]

3T3-L1 cells = assay: LPC(O)/LPE(O) supplementation with different SN1 compositions in 3T3-L1 cells, PE(P) level and composition; format: cell-based, mouse; conditions: 20 μM, 24 hours
Excerpt: The method employed in this study was the same as described in example 5, with the exception of the cell line and culture medium used. For this study, a mouse fibroblast/pre-adipocyte cell line, 3T3-L1, was utilised and cultured in Dulbecco's Modified Eagle Medium (DMEM) (Gibco, USA), supplemented with 1% sodium pyruvate (Gibco, USA) and 10% newborn calf serum (Gibco, New Zealand).

Question: Which “efficacy in elevating the endogenous PE(P) level” value (RAW 264.7 cells) does the source give for `CCCCCCCCCCCCCCCCCCOC[C@@H](O)COP(=O)(O)OCCN` [LPE(O-18:0) 100%] here?
Answer: equal effectiveness

Question: Which “efficacy in elevating the endogenous PE(P) level” value (RAW 264.7 cells) does the source give for `CCCCCCCCCCCCCCCCOC[C@@H](O)COP(=O)([O-])OCC[N+](C)(C)C` [LPC(O-16:0) 100%] here?
Answer: greater efficacy

Question: Which “efficacy in elevating the endogenous PE(P) level” value (RAW 264.7 cells) does the source give for `CCCCCCCC/C=C\CCCCCCCCOC[C@@H](O)COP(=O)(O)OCCN` [LPE(O-18:1) 100%] here?
Answer: comparatively less effective

Question: And the “cellular PE(P) levels” value (3T3-L1 cells)?
Answer: appeared to reduce these levels

Question: `CCCCCCCCCCCCCCCCOC[C@@H](O)COP(=O)(O)OCCN` [LPE(O-16:0) 100%] was tested. Which “efficacy in elevating the endogenous PE(P) level” value (RAW 264.7 cells) did it give?
Answer: equal effectiveness
